Measured values reported in patent US20140323477A1, “SERINE/THREONINE KINASE INHIBITORS” (Genentech, Inc., priority 2013, published 2014).

Molecular target: T1, human recombinant PAK1-KD protein (Homo sapiens, UniProt Q13153)
T1 construct: made in house; host or cells: Tini cells (insect cells) infected with recombinant baculovirus
Assay: PAK1-KD (kinase domain) IC50 Zlyte assay
Type: biochemical
Details: Z′-LYTE FRET peptide substrate (Ser/Thr19), 20 pM PAK1-KD, 60-minute incubation at 22° C.
Description: PAK1-KD (Kinase Domain) IC50 Zlyte Assay Protocol
Activity of human recombinant PAK1-KD protein may be assessed in vitro by assay of the phosphorylation of a FRET peptide substrate. Catalytically active human recombinant PAK1-KD protein is obtained by purification from Tini cells infected with a human PAK1-KD recombinant baculovirus expression vector.
The activity/inhibition of PAK1-KD was estimated by measuring the phosphorylation of a FRET peptide substrate (Ser/Thr19) labeled with coumarin and fluorescein using Z′-LYTE™ assay (Invitrogen). The peptide substrate is a consensus sequence (KKRNRRLSVA) based on various PAK substrates reported in the scientific literature. The 10 μL assay mixtures contained 50 mM HEPES (pH 7.5), 0.01% Brij-35, 10 mM MgCl2, 1 mM EGTA, 2 μM FRET peptide substrate, and 20 pM PAK1-KD. Incubations were carried out at 22° C. in black polypropylene 384-well plates (Corning Costar). […] Following the 60-minute incubation, the assay mixtures were quenched by the addition of 5 μL of Z′-LYTETm development reagent, and 1 hour later the emissions of Coumarin (445 nm) and Fluorescein (520 nm) were determined after excitation at 400 nm using an Envision plate reader (Perkin Elmer). An emission ratio (445 nm/520 nm) was determined to quantify the degree of substrate phosphorylation.

T1 sequence (Q13153 270-521 limits assumed): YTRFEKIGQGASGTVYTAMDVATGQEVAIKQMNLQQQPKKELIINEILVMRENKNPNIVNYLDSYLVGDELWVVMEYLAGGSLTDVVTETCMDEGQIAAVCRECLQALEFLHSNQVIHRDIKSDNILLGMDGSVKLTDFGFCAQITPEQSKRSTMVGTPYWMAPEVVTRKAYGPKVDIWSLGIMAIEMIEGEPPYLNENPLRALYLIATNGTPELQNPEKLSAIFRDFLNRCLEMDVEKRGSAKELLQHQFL

| IC50 [nM] | SMILES |
| --- | --- |
| 80.4 | CC(C)NS(=O)(=O)c1ccc(-c2cc3cnc(NCCC4CCN(C)CC4)nc3n(C)c2=O)c(Cl)c1 [Compound I-13, 3-chloro-N-isopropyl-4-[8-methyl-2-[2-(1-methyl-4-piperidyl)ethylamino]-7-oxo-pyrido[2,3-d]pyrimidin-6-yl]benzenesulfonamide] |
| 1600 | CCNc1ncc2cc(-c3ccc(S(=O)(=O)NC)cc3Cl)c(=O)n(C)c2n1 [Compound I-11, 3-chloro-4-[2-(ethylamino)-8-methyl-7-oxo-pyrido[2,3-d]pyrimidin-6-yl]-N-methyl-benzenesulfonamide] |
| 820 | CNS(=O)(=O)c1ccc(-c2cc3cnc(NCCC4CCN(C)CC4)nc3n(C)c2=O)c(Cl)c1 [Compound I-10, 3-chloro-N-methyl-4-[8-methyl-2-[2-(1-methyl-4-piperidyl)ethylamino]-7-oxo-pyrido[2,3-d]pyrimidin-6-yl]benzenesulfonamide] |
| 22.3 | CCNS(=O)(=O)c1ccc(-c2cc3cnc(NCCC4CCN(C)CC4)nc3n(CC)c2=O)c(Cl)c1 [Compound I-8, 3-chloro-N-ethyl-4-[8-ethyl-2-[2-(1-methyl-4-piperidyl)ethylamino]-7-oxo-pyrido[2,3-d]pyrimidin-6-yl]benzenesulfonamide] |
| 310 | CCn1c(=O)c(-c2cc(S(=O)(=O)N(C)C)ccc2Cl)cc2cnc(NCCC3CCN(C)CC3)nc21 [Compound I-14, 4-chloro-3-[8-ethyl-2-[2-(1-methyl-4-piperidyl)ethylamino]-7-oxo-pyrido[2,3-d]pyrimidin-6-yl]-N,N-dimethyl-benzenesulfonamide] |
| 177 | CCNc1ncc2cc(-c3ccc(S(=O)(=O)NC(C)C)cc3Cl)c(=O)n(C)c2n1 [Compound I-12, 3-chloro-4-[2-(ethylamino)-8-methyl-7-oxo-pyrido[2,3-d]pyrimidin-6-yl]-N-isopropyl-benzenesulfonamide] |
| 131 | CCNc1ncc2cc(-c3ccc(S(=O)(=O)NCC)cc3Cl)c(=O)n(CC)c2n1 [Compound I-9, 3-chloro-N-ethyl-4-[8-ethyl-2-(ethylamino)-7-oxo-pyrido[2,3-d]pyrimidin-6-yl]benzenesulfonamide] |

Further lines, the molecule ahead of its results:

| SMILES | IC50 [nM] |
| --- | --- |
| CCNS(=O)(=O)c1ccc(-c2cc3cnc(NCCC4CCN(C)CC4)nc3n(CC)c2=O)c(C)c1 [Compound I-2, N-ethyl-4-[8-ethyl-2-[2-(1-methyl-4-piperidyl)ethylamino]-7-oxo-pyrido[2,3-d]pyrimidin-6-yl]-3-methyl-benzenesulfonamide] | 133 |
| CCn1c(=O)c(-c2ccc(S(=O)(=O)N3CCOCC3)cc2C)cc2cnc(NCCC3CCN(C)CC3)nc21 [Compound I-4, 8-ethyl-6-(2-methyl-4-morpholinosulfonyl-phenyl)-2-[2-(1-methyl-4-piperidyl)ethylamino]pyrido[2,3-d]pyrimidin-7-one] | 751 |
| CCn1c(=O)c(-c2ccc(S(=O)(=O)NC)cc2C)cc2cnc(NCCC3CCN(C)CC3)nc21 [Compound I-7, 4-[8-ethyl-2-[2-(1-methyl-4-piperidyl)ethylamino]-7-oxo-pyrido[2,3-d]pyrimidin-6-yl]-N,3-dimethyl-benzenesulfonamide] | 582 |
| CCn1c(=O)c(-c2ccc(S(=O)(=O)N(C)C)cc2C)cc2cnc(NCCC3CCN(C)CC3)nc21 [Compound I-3, 4-[8-ethyl-2-[2-(1-methyl-4-piperidyl)ethylamino]-7-oxo-pyrido[2,3-d]pyrimidin-6-yl]-N,N,3-trimethyl-benzenesulfonamide] | 1320 |
| CCn1c(=O)c(-c2ccc(S(=O)(=O)N3CCCC3)cc2C)cc2cnc(NCCC3CCN(C)CC3)nc21 [Compound I-5, 8-ethyl-2-[2-(1-methyl-4-piperidyl)ethylamino]-6-(2-methyl-4-pyrrolidin-1-ylsulfonyl-phenyl)pyrido[2,3-d]pyrimidin-7-one] | 460 |
| CCn1c(=O)c(-c2ccc(S(=O)(=O)NC3CC3)cc2C)cc2cnc(NCCC3CCN(C)CC3)nc21 [Compound I-6, N-cyclopropyl-4-[8-ethyl-2-[2-(1-methyl-4-piperidyl)ethylamino]-7-oxo-pyrido[2,3-d]pyrimidin-6-yl]-3-methyl-benzenesulfonamide] | 77.1 |
| CCn1c(=O)c(-c2cccc(S(=O)(=O)N(C)C)c2)cc2cnc(NCCC3CCN(C)CC3)nc21 [Compound I-1, 3-[8-ethyl-2-[2-(1-methyl-4-piperidyl)ethylamino]-7-oxo-pyrido[2,3-d]pyrimidin-6-yl]-N,N-dimethyl-benzenesulfonamide] | 182 |
